What all share (type): physicochemical
Data set [1] is described as follows: Solid form stability study of salts and/or co-crystals at 25° C./60% RH and 40° C./75% RH. How it is done: The stability of the prepared salts and/or co-crystals was analyzed after 1 and 2 weeks at 25° C. and 60% relative humidity and 40° C. and 75% relative humidity. […] None of the phosphate, tartrate, or nicotinate salts and/or co-crystals underwent a form change during the stability testing, and each of them retained greater than 97% purity over the two weeks of the study. In fact, both the tartrate and nicotinate both retained greater than 99% purity.

Data set [2] in a line: Kinetic solubility in water and Medisca Oral Mix (HPLC solubility, purity and pH of supernatant). As to conditions: RT; for Purity (area %) of supernatant: for reference only; for Purity (area %) of supernatant / pH: listed as nicotinate salt and/or co-crystal. The method, then: The kinetic solubility was evaluated for nicotinate, phosphate, L-tartrate, and fumarate salts and/or co-crystals of sepiapterin in water and […] Oral Mix. X-ray powder diffraction (XRPD) was performed for the residual solids to identify form change/disproportionation. Solids were suspended into the media with target conc. of 7 mg/mL (calculated by freebase).

The nature of data set [3]: Form change/disproportionation of residual solids by XRPD after suspension in water or Medisca Oral Mix. As to conditions: for Form change (residual solids, XRPD): RT, listed as nicotinate salt and/or co-crystal. How it is done:
The kinetic solubility was evaluated for nicotinate, phosphate, L-tartrate, and fumarate salts and/or co-crystals of sepiapterin in water and […] Oral Mix. X-ray powder diffraction (XRPD) was performed for the residual solids to identify form change/disproportionation. Solids were suspended into the media with target conc. of 7 mg/mL (calculated by freebase). […] Oral Mix after 1 hour. […] Oral Mix.

`C[C@H](O)C(=O)C1=Nc2c(nc(N)[nH]c2=O)NC1` [Glycolate, sepiapterin]: the “Purity (Area %)” value came to 98.93 Area % in data set [1] (1 week, 25° C./60% RH); 98.54 Area % in data set [1] (1 week, 40° C./75% RH); 98.86 Area % in data set [1] (2 weeks, 25° C./60% RH); 98.52 Area % in data set [1] (2 weeks, 40° C./75% RH); 99.19 Area % in data set [1] (Initial). Also, the “Purity vs. initial (%)” value is 99.7% in data set [1] (1 week, 25° C./60% RH); 99.3% in data set [1] (1 week, 40° C./75% RH); 99.7% in data set [1] (2 weeks, 25° C./60% RH); 99.3% in data set [1] (2 weeks, 40° C./75% RH).

Regarding `C[C@H](O)C(=O)C1=Nc2c(nc(N)[nH]c2=O)NC1` [Sulfate, sepiapterin], the Form change result in data set [1] (1 week, 25° C./60% RH) is reported as “No”; in data set [1] (1 week, 40° C./75% RH), “No”; in data set [1] (2 weeks, 25° C./60% RH), “No”; in data set [1] (2 weeks, 40° C./75% RH) it was “No”. Besides, the “Purity (Area %)” value in data set [1] (1 week, 25° C./60% RH) is given as 95.22 Area %; in data set [1] (1 week, 40° C./75% RH), 89.44 Area %; in data set [1] (2 weeks, 25° C./60% RH), 93.46 Area %; in data set [1] (2 weeks, 40° C./75% RH), 88.20 Area %; in data set [1] (Initial), 97.33 Area %. For the same compound, the “Purity vs. initial (%)” value in data set [1] (1 week, 25° C./60% RH) amounted to 97.8%; in data set [1] (1 week, 40° C./75% RH) it was 91.9%; in data set [1] (2 weeks, 25° C./60% RH) it was 96.0%; in data set [1] (2 weeks, 40° C./75% RH) it was 90.6%.

`C[C@H](O)C(=O)C1=Nc2c(nc(N)[nH]c2=O)NC1` [Nicotinate, sepiapterin]: the “Stability compared with the other salts and/or co-crystals tested” value in data set [1] is on record as “noticeably more stable than the others”. In addition, the “Underwent a form change during the stability testing” value in data set [1] (1 and 2 weeks, 25° C./60% RH and 40° C./75% RH) is listed as “None”. In addition, the Form change result in data set [1] (1 week, 25° C./60% RH) is listed as “No”; in data set [1] (1 week, 40° C./75% RH), “No”; in data set [1] (2 weeks, 25° C./60% RH) it was “No”; in data set [1] (2 weeks, 40° C./75% RH) it was “No”. In addition, the “Purity (Area %)” value in data set [1] (1 week, 25° C./60% RH) was determined as 97.43 Area %; in data set [1] (1 week, 40° C./75% RH) it was 97.30 Area %; in data set [1] (2 weeks, 25° C./60% RH), 97.45 Area %; in data set [1] (2 weeks, 40° C./75% RH), 97.41 Area %; in data set [1] (Initial), 97.16 Area %. Further, the “Purity vs. initial (%)” value is recorded as 100.3% in data set [1] (1 week, 25° C./60% RH); 100.2% in data set [1] (1 week, 40° C./75% RH); 100.3% in data set [1] (2 weeks, 25° C./60% RH); 100.3% in data set [1] (2 weeks, 40° C./75% RH). Besides, the Observation entry in data set [2] (Medisca Oral Mix, 1 hr) is given as “Turbid”; in data set [2] (Medisca Oral Mix, 4 hr), “Turbid”; in data set [2] (Medisca Oral Mix, 24 hr) it was “Turbid”; in data set [2] (Water, 1 hr), “Turbid”; in data set [2] (Water, 4 hr), “Turbid”; in data set [2] (Water, 24 hr) it was “Turbid”. In addition, the “Purity (area %) of supernatant” value in data set [2] (Medisca Oral Mix, 1 hr) was found to be 99.76 area %; in data set [2] (Medisca Oral Mix, 4 hr), 99.60 area %; in data set [2] (Medisca Oral Mix, 24 hr), 97.00 area %; in data set [2] (Water, 1 hr), 98.97 area %; in data set [2] (Water, 4 hr), 99.04 area %; in data set [2] (Water, 24 hr) it was 96.54 area %. Also, the pH in data set [2] (Medisca Oral Mix, 1 hr) was 3.1; in data set [2] (Medisca Oral Mix, 4 hr), 3.1; in data set [2] (Medisca Oral Mix, 24 hr) it was 3.1; in data set [2] (Water, 1 hr) it was 2.1; in data set [2] (Water, 4 hr), 2.1; in data set [2] (Water, 24 hr) it was 2.1. Also, the “Form change (residual solids, XRPD)” value is reported as “Yes” in data set [3] (Medisca Oral Mix, 1 hr); “Yes” in data set [3] (Medisca Oral Mix, 4 hr); “Yes” in data set [3] (Medisca Oral Mix, 24 hr); “Yes” in data set [3] (Water, 1 hr); “Yes” in data set [3] (Water, 4 hr); “Yes” in data set [3] (Water, 24 hr). For the same compound, the “Form of the residual solids in Medisca Oral Mix” value in data set [3] (Medisca Oral Mix, after 1 hour) is on record as “converted to freebase”. In addition, the “Form of the residual solids in water” value in data set [3] (water, after 1 hour) is listed as “converted to freebase”.

For `C[C@H](O)C(=O)C1=Nc2c(nc(N)[nH]c2=O)NC1` [Methanesulfonate, sepiapterin], the Form change entry is “No” in data set [1] (1 week, 25° C./60% RH); “No” in data set [1] (1 week, 40° C./75% RH); “No” in data set [1] (2 weeks, 25° C./60% RH); “No” in data set [1] (2 weeks, 40° C./75% RH). The “Purity (Area %)” value in data set [1] (1 week, 25° C./60% RH) is listed as 95.26 Area %; in data set [1] (1 week, 40° C./75% RH), 88.68 Area %; in data set [1] (2 weeks, 25° C./60% RH) it was 91.95 Area %; in data set [1] (2 weeks, 40° C./75% RH), 85.97 Area %; in data set [1] (Initial) it was 91.14 Area %. Moreover, the “Purity vs. initial (%)” value in data set [1] (1 week, 25° C./60% RH) is 104.5%; in data set [1] (1 week, 40° C./75% RH), 97.3%; in data set [1] (2 weeks, 25° C./60% RH), 100.9%; in data set [1] (2 weeks, 40° C./75% RH) it was 94.3%.

In the case of `C[C@H](O)C(=O)C1=Nc2c(nc(N)[nH]c2=O)NC1` [Gentisate, sepiapterin], the “Purity (Area %)” value is on record as 97.66 Area % in data set [1] (1 week, 25° C./60% RH); 96.89 Area % in data set [1] (1 week, 40° C./75% RH); 97.00 Area % in data set [1] (2 weeks, 25° C./60% RH); 93.37 Area % in data set [1] (2 weeks, 40° C./75% RH); 94.35 Area % in data set [1] (Initial). The “Purity vs. initial (%)” value in data set [1] (1 week, 25° C./60% RH) was 103.5%; in data set [1] (1 week, 40° C./75% RH), 102.7%; in data set [1] (2 weeks, 25° C./60% RH), 102.8%; in data set [1] (2 weeks, 40° C./75% RH), 102.1%.

Turning to `C[C@H](O)C(=O)C1=Nc2c(nc(N)[nH]c2=O)NC1` [Malonate, sepiapterin], the “Purity (Area %)” value turned out to be 99.39 Area % in data set [1] (1 week, 25° C./60% RH); 99.14 Area % in data set [1] (1 week, 40° C./75% RH); 99.23 Area % in data set [1] (2 weeks, 25° C./60% RH); 97.81 Area % in data set [1] (2 weeks, 40° C./75% RH); 99.45 Area % in data set [1] (Initial). Also, the “Purity vs. initial (%)” value was found to be 99.9% in data set [1] (1 week, 25° C./60% RH); 99.7% in data set [1] (1 week, 40° C./75% RH); 99.8% in data set [1] (2 weeks, 25° C./60% RH); 98.3% in data set [1] (2 weeks, 40° C./75% RH).

For the compound `C[C@H](O)C(=O)C1=Nc2c(nc(N)[nH]c2=O)NC1` [Toluenesulfonate, sepiapterin], the Form change entry in data set [1] (1 week, 25° C./60% RH) is reported as “No”; in data set [1] (1 week, 40° C./75% RH), “No”; in data set [1] (2 weeks, 25° C./60% RH), “No”; in data set [1] (2 weeks, 40° C./75% RH), “No”. Besides, the “Purity (Area %)” value in data set [1] (1 week, 25° C./60% RH) is 94.19 Area %; in data set [1] (1 week, 40° C./75% RH), 89.11 Area %; in data set [1] (2 weeks, 25° C./60% RH) it was 91.40 Area %; in data set [1] (2 weeks, 40° C./75% RH) it was 88.12 Area %; in data set [1] (Initial), 96.84 Area %. The “Purity vs. initial (%)” value is 97.3% in data set [1] (1 week, 25° C./60% RH); 92.0% in data set [1] (1 week, 40° C./75% RH); 94.4% in data set [1] (2 weeks, 25° C./60% RH); 91.0% in data set [1] (2 weeks, 40° C./75% RH).

Turning to `C[C@H](O)C(=O)C1=Nc2c(nc(N)[nH]c2=O)NC1` [HCI, sepiapterin], the Form change result in data set [1] (1 week, 25° C./60% RH) was “No”; in data set [1] (1 week, 40° C./75% RH), “No”; in data set [1] (2 weeks, 25° C./60% RH), “No”; in data set [1] (2 weeks, 40° C./75% RH), “No”. Moreover, the “Purity (Area %)” value was found to be 97.19 Area % in data set [1] (1 week, 25° C./60% RH); 89.25 Area % in data set [1] (1 week, 40° C./75% RH); 91.84 Area % in data set [1] (2 weeks, 25° C./60% RH); 84.16 Area % in data set [1] (2 weeks, 40° C./75% RH); 93.94 Area % in data set [1] (Initial). For the same compound, the “Purity vs. initial (%)” value is 103.5% in data set [1] (1 week, 25° C./60% RH); 95.0% in data set [1] (1 week, 40° C./75% RH); 97.8% in data set [1] (2 weeks, 25° C./60% RH); 89.6% in data set [1] (2 weeks, 40° C./75% RH).

Take `C[C@H](O)C(=O)C1=Nc2c(nc(N)[nH]c2=O)NC1` [Benzenesulfonate, sepiapterin]: the “Purity (Area %)” value is 90.68 Area % in data set [1] (1 week, 25° C./60% RH); 82.63 Area % in data set [1] (1 week, 40° C./75% RH); 86.37 Area % in data set [1] (2 weeks, 25° C./60% RH); 82.65 Area % in data set [1] (2 weeks, 40° C./75% RH); 90.20 Area % in data set [1] (Initial). Further, the “Purity vs. initial (%)” value in data set [1] (1 week, 25° C./60% RH) is 100.5%; in data set [1] (1 week, 40° C./75% RH), 91.6%; in data set [1] (2 weeks, 25° C./60% RH), 95.8%; in data set [1] (2 weeks, 40° C./75% RH), 91.6%.

Source of the values: patent US12637465B2, “Pharmaceutically acceptable salts of sepiapterin” (PTC Therapeutics MP, Inc., priority 2018, dated 2026).
